Tests used:
Type in all cases: cell-based, mouse
DBL-treated organoids [1] = test: Drug treatment of DBL-treated SG organoids (size, ORO, Ki67, cell size); conditions: for organoid size: then drug for three days
Text: With a system that recapitulates important aspects of acne vulgaris, the extent that currently prescribed medications could affect its development was examined. Retinoids are derivatives of vitamin A, which serve as the first-line treatment for acne. Specifically, all-trans-Retinoic acid (ATRA; Tretinoin), formulated ATRA (Ret-Avit) and 13-cis RA (Isotrtinoin) are used worldwide. […] The differentiation program in the SG is a multi-step process. Cells prior to the onset or during early stage of differentiation express AR, which is known to reside upstream and lead to the expression of F[…]. […] Therefore, it was hypothesized that inhibition of c-Myc could serve as a beneficial treatment of acne vulgaris. For this aim, the 10058-F4 c-Myc inhibitor was administered to DBL-treated organoids and size, proliferation and differentiation were monitored.

[2] = system: Blimp1−YFP+-derived sebaceous gland organoids; test: SG organoids treated with c-Myc inhibitor: size, cell size/number, proliferation, lipid staining
Protocol: For organoid generation a total of ˜1000 cells were mixed with 50 μl of Matrigel (BD Bioscience) and plated in 24-well plates. After polymerization of Matrigel, 500 μl of HFSC media containing growth factors; 20 ng ml-1 hFGF (Peprotech), 40 ng ml-1 mEGF (Peprotech), 500 ng ml-1 hR-spondin 1, 100 ng ml-1 mNoggin (Peprotech) and B-27 Supplement (50×) (Invitrogen)) was added. Organoid treatment with cMyc inhibitor 10058-F4 (50 Tocris Bioscience) or DMSO (as control) was performed for 4 days and renewed upon media change. Organoids were fixed in 4% PFA for 1 hour for immunofluorescence analysis or harvested for RNA extraction. Antibody staining was visualized using secondary antibodies conjugated to Alexa Fluor-488, Alexa Fluor-546, and Alexa Fluor-633. Analysis was performed on Zeiss LSM 880 confocal microscope. Oil-red-O (ORO) staining was performed by incubating samples in 0.18% ORO for 20 min and washing with PBS. Next, the effect of inhibiting c-Myc activity by administering the specific c-Myc inhibitor, 10058-F4 was monitored. […] Six-day old SG organoids were supplemented with the c-Myc inhibitor for 4 days. […] Since the effect on organoid size could result from either altered cell size or number both scenarios were examined. […] Whether the effect of c-Myc inhibition originates from an effect on cell proliferation and/or differentiation was examined next. Employing IF staining with two proliferative markers, Ki67 and MCM2, indicated a significant decline in Ki67+ (69%) and MCM2+ (72%) proliferative cells (FIG. 4J-L). […] This is in line with the reported role of c-Myc in regulating differentiation in the SG in vivo. […] Next, using Real time (RT)-PCR analysis, the levels of transcripts that are expressed in either SG differentiating or differentiated cells, which play a key role in this process were examined. Inhibition of c-Myc decreased the levels of all examined factors including Androgen Receptor (AR) and fatty acid synthase (FASN) (FIG. 4O).

[3] = system: Blimp1−YFP+-derived sebaceous gland organoids; test: Real-time PCR of sebocyte differentiation markers in c-Myc inhibitor-treated SG organoids; conditions: RT-PCR, inhibitor for 4 days
Protocol: Organoid treatment with cMyc inhibitor 10058-F4 (50 Tocris Bioscience) or DMSO (as control) was performed for 4 days and renewed upon media change. Organoids were fixed in 4% PFA for 1 hour for immunofluorescence analysis or harvested for RNA extraction.
(§1) RNA extraction, reverse transcription and real-time PCR: RNA was isolated using Trizol (Sigma) and up to 2 μg of RNA were subjected to cDNA synthesis (Applied Biosystems). Real time PCR was carried out using the PerfeCTa SYBR Green FastMix (Quanta), with the following gene-specific primers: RpLO: […] (SEQ ID NO: 1) and ATCTGCTTGGAGCCCACAT (SEQ ID NO: 2); AR: […] (SEQ ID NO: 3) and […] (SEQ ID NO: 4); PPAR-gamma: […] (SEQ ID NO: 5) and […] (SEQ ID NO: 6); PPAR-beta: TTCCTTCCAGCAGCTGTG (SEQ ID NO: 7) and TCGCACGCGTGGACC (SEQ ID NO: 8); FASN: […] (SEQ ID NO: 9) and […] (SEQ ID NO: 10). Amplicon levels were analyzed in triplicate and quantitated relative to a standard curve comprising cDNA, and values normalized to levels of the housekeeping gene (Rpl0). Reactions were: 3 min at 95° C., then 40 cycles of 10 sec at 95° C. and 30 sec at 60° C. with addition of melt curve step: 10 sec at 95° C., and increments of 0.5° C. every 5 sec between 65° C. and 95° C.
This is in line with the reported role of c-Myc in regulating differentiation in the SG in vivo. […] Next, using Real time (RT)-PCR analysis, the levels of transcripts that are expressed in either SG differentiating or differentiated cells, which play a key role in this process were examined. Inhibition of c-Myc decreased the levels of all examined factors including Androgen Receptor (AR) and fatty acid synthase (FASN) (FIG. 4O).

DBL-treated organoids [4] = test: RT-PCR of DBL-treated SG organoids after drug treatment; conditions: then drug
Protocol: as §1
The differentiation program in the SG is a multi-step process. Cells prior to the onset or during early stage of differentiation express AR, which is known to reside upstream and lead to the expression of FASN35.
Retinols, such as 13-cis RA, are known to have severe side-effects and concerns have been raised regarding the teratogenicity of these compounds. This highlights the immediate need for alternative treatments. […] Therefore, it was hypothesized that inhibition of c-Myc could serve as a beneficial treatment of acne vulgaris. For this aim, the 10058-F4 c-Myc inhibitor was administered to DBL-treated organoids and size, proliferation and differentiation were monitored.

SG organoids = test: Acne vulgaris model: DHT, BRL, LIN administered to SG organoids (size, ORO, Ki67); conditions: administration to organoids (single agents for 7 days; combinations)
Protocol: Therefore, as a first step, the potent dihydrotestosterone (DHT) androgen, the PPAR-γ BRL-49653 (BRL) activator and linoleic acid (LIN) known to activate PPAR-B38 were administered to organoids.

SG organoid = SG organoid as model organ to test drugs (caspase-3 inhibitors, Tretinoin); conditions: for attenuation of SG organoid size: 100 uM, after 72 hours
Protocol: Organoids were generated as described herein and treated with two caspase-3 inhibitors (zDEVD-fmk at 100 uM and […] at 100 uM) to assess their effect on the SG. A known anti-acne drug, Tretinoin (10-100 uM) was also added as a positive control.

[5] = system: freshly isolated α6+; ScaI−; Blimp1−YFP+ cells; test: Organoid generation from primary cells directly seeded in Matrigel with ROCK inhibitor; conditions: cultures supplemented with ROCK inhibitor and GFs
Text: It was next examined if these Blimp1+ cell-derived organoids could be generated by isolating primary α6+; ScaI−; Blimp1−YFP+ cells and directly seeding them into Matrigel without a pre-culturing phase. […] Thus, these cultures were supplemented with a ROCK inhibitor (Y27632), which prevents cell-cell interaction-dependent anoikis.

[6] = IF staining, inhibitor for 4 days
[7] = six-day old SG organoids, inhibitor for 4 days

With `CC1=C(/C=C/C(C)=C/C=C/C(C)=C\C(=O)O)C(C)(C)CCC1` [13-cis RA, 13-cis-Retinoic acid] the “number of ORO+ cells” value (DBL-treated organoids [1]; then drug) was “heightened number” and the organoid size (DBL-treated organoids [1]) was “significant decrease”.
For `CCc1ccc(C=C2SC(=S)NC2=O)cc1` [10058-F4, 5-[(4-Ethylphenyl)methylene]-2-thioxo-4-thiazolidinone], the “decline in Ki67+ proliferative cells” value [2, 6] was 69%, the “decline in MCM2+ proliferative cells” value [2, 6] was 72% and the “lipid levels (ORO dye staining)” value ([2]; inhibitor for 4 days) was “significant decrease”. For the same compound, the “decrease in organoid size” value ([2]; six-day old SG organoids, c-Myc inhibitor for 4 days, vs DMSO control) was ~40%, the “decline in cell diameter, cells in the inner compartment” value [2, 7] was ~40% and the “diameter of individual cells in the outer proliferating layer of the organoid” value [2, 7] was “modest size decrease”. For the same compound, the “localization of c-Myc” value [2, 7] was “did not affect”, the “number of cells in the outer ring of the organoids” value [2, 7] was “decreased” and the “Androgen Receptor (AR) transcript level” value [3] was “decreased”. The PPAR-β transcript level [3] was “significantly attenuated”, the PPAR-γ transcript level [3] was “significantly attenuated” and the “fatty acid synthase (FASN) transcript level” value [3] was “decreased”. The “decrease in the number of Ki67+ cells” value (DBL-treated organoids [1]; then drug) was “more than 80%”, the “number of ORO+ cells” value (DBL-treated organoids [1]; then drug) was “significant decrease” and the “size of individual inner cells” value (DBL-treated organoids [1]; then drug) was “decrease”. For the same compound, the organoid size (DBL-treated organoids [1]) was “significant decrease”, the “expression levels of lipid synthesis genes” value (DBL-treated organoids [4]) was “significantly lower” and the “mRNA level of Cyclin D1” value (DBL-treated organoids [4]) was “significant decrease”. For the same compound, the “mRNA level of c-Myc” value (DBL-treated organoids [4]) was “significant decrease”.
In the case of `C[C@]12CCC(=O)C[C@@H]1CC[C@@H]1[C@@H]2CC[C@]2(C)[C@@H](O)CC[C@@H]12` [DHT, dihydrotestosterone], the “size of individual SG organoids” value (SG organoids) is reported as “significantly increased”.
For `CC(=O)OCCN1C(=O)c2c(C)nc3ccc(S(=O)(=O)N4CCOCC4)cc3c2C1=O` [Ivachtin], the “attenuation of SG organoid size” value (SG organoid) was “about 30%”.
`CCCCC/C=C\C/C=C\CCCCCCCC(=O)O` [LIN, linoleic acid] was tested, and the “size of individual SG organoids” value (SG organoids) was “significantly increased”.
`CC1=C(/C=C/C(C)=C/C=C/C(C)=C/C(=O)O)C(C)(C)CCC1` [Tretinoin, all-trans-Retinoic acid] was tested, and the “reduction of SG organoid size compared with the caspase-3 inhibitors” value (SG organoid; 10-100 uM, positive control) was “very similar”, the “number of ORO+ cells” value (DBL-treated organoids [1]; then drug) was “heightened number” and the organoid size (DBL-treated organoids [1]) was “significant decrease”.
`C[C@@H](N)[C@H]1CC[C@H](C(=O)Nc2ccncc2)CC1` [Y27632] was tested, and the “organoid generation from primary cells seeded into Matrigel without pre-culturing” value [5] was “able to give rise to organoids, although at a lower efficiency”.
In the case of `COC(=O)CC[C@H](NC(=O)[C@H](CC(=O)OC)NC(=O)OCc1ccccc1)C(=O)N[C@H](C(=O)N[C@@H](CC(=O)OC)C(=O)CF)C(C)C` [zDEVD-fmk], the “attenuation of SG organoid size” value (SG organoid) is reported as “about 30%”, the “cells positive for Ki67” value (SG organoid; caspase-3 inhibitor treatment) is reported as “greatly reduced” and the “cells positive for MCM2” value (SG organoid; caspase-3 inhibitor treatment) is reported as “greatly reduced”.
